Molecular target: T1, AKR1C2 (Homo sapiens, UniProt P52895)
T1 construct: Myc (N); expressed in transfected cells; host or cells: HEK293
T1 sequence (P52895 1-323): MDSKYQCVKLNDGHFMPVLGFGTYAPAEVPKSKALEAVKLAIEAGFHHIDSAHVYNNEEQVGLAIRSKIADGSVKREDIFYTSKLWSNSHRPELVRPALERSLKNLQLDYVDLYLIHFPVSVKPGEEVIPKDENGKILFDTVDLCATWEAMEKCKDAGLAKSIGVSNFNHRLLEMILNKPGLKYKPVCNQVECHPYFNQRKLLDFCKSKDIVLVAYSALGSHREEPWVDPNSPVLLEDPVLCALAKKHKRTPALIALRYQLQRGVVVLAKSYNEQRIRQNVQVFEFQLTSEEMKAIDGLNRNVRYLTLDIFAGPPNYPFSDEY
Assay: AKR1C2 inhibition assay (DHT to 3α-androstanediol)
Type: biochemical
Details: 10 µM compound, mean ± SD
Description: For enzymatic assays and inhibitor testing, all enzymes were cloned into bacterial or mammalian expression vectors. AKR1C3 and the human hydroxysteroid dehydrogenases HSD17B1, HSD17B2, HSD17B4 (SDR domain), HSD17B7, and HSD17B10 were cloned into a pGEX vector as described in [71, 72]. The coding sequences for AKR1C1, AKR1C2, and AKR1C4 were cloned by Gateway technology into the pcDNA3-N-MycDest vector according to the manufacturer’s instructions (Life Technologies, Carlsbad, CA, USA). The p11 plasmid coding for HSD17B14 (S205 variant) was a gift from Udo Opperman SGC Oxford, UK. For assays with HSD17B3, HEK293 cells stably expressing HSD17B3 were used. Enzymes were expressed in E. coli BL21 DE3 or E. coli BL21 DE3 Codon Plus RP (Stratagene, San Diego, CA, USA) or in HEK293 cells as described in [71, 72, 73]. Bacterial and cell pellets were stored at −20 °C and −80 °C, respectively, until use.
Inhibition assays were carried out as described in [71, 74]. […] For a detailed assay setup, see Supplementary Table S6. The incubation at 37 °C was stopped with 0.21 M ascorbic acid in methanol:acetic acid 99:1 (v:v) after the time needed to convert approximately 30% of the substrate in a control assay with 1% DMSO, without inhibitor candidate. Substrates and products were extracted from the reaction mixture by solid-phase extraction using C18 cartridges (Phenomenex, Aschaffenburg, Germany) and separated by RP–HPLC in a Beckman–Coulter HPLC Gold system, using the Luna 5 µm C18(2), 125 × 4.0 mm column (Phenomenex). […] Radioactivity was detected by online scintillation counting by using a radioactivity monitor (LB506D, Berthold Technologies, Bad Wildbad, Germany). Conversion of substrates to products was determined by integration of the peak area of the substrate and product peaks in percent. […]

| inhibition at 10 µM | Inhibition of AKR1C2 at 10 µM in % | Inhibition of AKR1C2 at 10 µM in % (listed as 18 (MF11)) | Compound |
| --- | --- | --- | --- |
| 94 ± 0.4% | – | – | O=C(/C=C/c1ccc(Cl)cc1Cl)c1c(O)cc(O)cc1O [Compound 23, 2,4-dichloro-2′,4′,6′-trihydroxychalcone] |
| – | not more than 42.3% | 21.4 ± 5.1% | COc1ccc(/C=C/C(=O)c2c(O)cc(O)cc2OC)cc1 [Compound 18] |

Reference: publication PMC8876231, “Analogues of Natural Chalcones as Efficient Inhibitors of AKR1C3” (Metabolites, 2022)
